In patent US7112680B2, “Heterocyclic hydrazones for use as anti-cancer agents” (Austria Wirtschaftsservice Gesellschaft MIT Beschrankter …, priority 2000, dated 2006):
Where two headings read alike, the source gives them in different places.

Tests used:
[1] = test system: HeLa (epitheloid cervix carcinoma); assay: Inhibition of tumor cell growth, SRB-assay, HeLa; type: cell-based, human
[2] = test system: Burkitt's lymphoma (CA 46, ATCC No. CRL 1648); assay: Inhibition of tumor cell growth, MTT-assay, Burkitt's lymphoma; type: cell-based, human
Procedure: (§1) The KB cell lines were grown in Dulbecco's modified Eagle's medium (4,5 g glucose/l). To the cultures of KB-C1 cells 1 μg of colchicine/ml, and to the hydroxyurea-resistant KB-HU cells 1 mM hydroxyurea was added every other week. […] 3,000 - 10,000 cells in 200 μl medium were seeded per well into 96-well plates. […] Approximately 10,000 cells per 100 μl were seeded in 96-well plates. […] The substances were dissolved in dimethylsulfoxide (DMSO). […] Subsequently, the samples were fixed, washed, and the absorption was determined by a microplate reader.

[3] = test system: human tumor grafts (cell lines of FIG. 1); assay: Colony forming assay (two-layer soft agar); type: cell-based; settings: for IC50 / IC90 / Mean IC70: mean values of all cell lines tested in FIG. 1, continuous exposure 3 to 6 days
Procedure: An excellent correlation of drug response in patients and the colony forming assay has been found (Scholz et al, Eur. J. Cancer 25:901–905, 1990). Solid human tumors were grown as grafts in nude mice, removed from the latter, mechanically comminuted and subsequently incubated in an enzyme cocktail consisting of collagenase (1.2–1.8 U/ml), DNAse (375 U/ml) and hyaluronidase (29 U/ml) in RPMI 1640 medium at 37° C. for 30 minutes. The cell mixture was passed through sieves of 200 μm and 50 μm mesh size and washed thereafter twice with PBS (phosphate buffered saline). The percentage of live cells was determined using a Neubauer counting chamber and trypan blue staining.
The colony forming assay was performed according to a two-layer agar technique introduced and modified by Hamburger and Salmon (Hamburger and Salmon, Science, 197:461–463, 1977). The bottom layer consisted of 0.2 ml of Iscoves's Modified Dulbecco's medium with 20% fetal calf serum and 0.75% agar. 8×10^3 to 1.6×10^4 cells were added to the same medium and 0.4% agar and plated in 24-multiwell plates onto the base layer. One day after the plating (with continuous exposure), the substances were added in 0.2 ml medium. Each plate included six controls containing the solvent only, and the treated groups contained 6 concentrations of the substances, each in triplicate. Cultures were incubated at 37° C. and 7% CO2 in a water-saturated atmosphere for 3 to 6 days, depending on the doubling time of the tumor cells. At the time of maximum colony formation with a size of […], counts were performed with an automatic image analysis system. 24 h prior to counting, live colonies were stained with a sterile aqueous solution of 2-(4-iodophenyl)-3-(4-nitrophenyl)-5-phenyltetrazolium chloride (1 mg/ml, 100 μl/well). The results of the tests are given in FIG. 1, and in the following Table 5, respectively. […] Columns pointing towards the right show a slighter than average activity.

[4] = test system: HT-29 (colon adenocarcinoma); assay: Inhibition of tumor cell growth, SRB-assay, HT-29; type: cell-based, human
Procedure: as §1

[5] = test system: multidrug-resistant KB-C1 cells; assay: Inhibition of tumor cell growth, SRB-assay, KB-C1; type: cell-based, human
Procedure: (§2) In order to obtain information about the growth-inhibiting action on tumor cells, the inhibition of the growth of the following human tumor cells was determined: Burkitt's lymphoma (CA 46, ATCC No. CRL 1648), CCRF-CEM (acute lymphoblastic leukemia, ATCC No. CCL 119), K562 (chronic myelogenous leukemia, ATTC No. CCL 243), HeLa (epitheloid cervix carcinoma, ATCC No. CCL 2), MEXF 276L (melanoma), HT-29 (colon adenocarcinoma, ATCC No. HTB 38), KB-3-1 (human oral epidermoid carcinoma, CTCC No. CCL 17), KB-HU hydroxyurea-resistant, multidrug-resistant KB-C1 cells (Akiyama et al, Cell. Mol Genet., 11:117–126, 1985). Burkitt's, CCRF-CEM, HeLa and MEXF 276L cells were grown in RPMI 1640, HT-29 cells in McCoy's 5A medium. The KB cell lines were grown in Dulbecco's modified Eagle's medium (4,5 g glucose/l). To the cultures of KB-C1 cells 1 μg of colchicine/ml, and to the hydroxyurea-resistant KB-HU cells 1 mM hydroxyurea was added every other week. The media were supplemented with 10% fetal calf serum (except Burkitt's lymphoma cells with 15%), 2 mM glutamine, 50 units/ml penicillin and 50 μg/ml streptomycin. Inhibition of growth of HeLa, HT-29, KB and MEXF 276L cells was detected by the SRB-assay (Skehan et al, J. Natl Cancer Inst., 82:1107–1112, 1990). 3,000 - 10,000 cells in 200 μl medium were seeded per well into 96-well plates. Dose-response curves for CCRF-CEM and Burkitt's lymphoma cells were effected by an MTT-assay (Mosman, J. Immunol Methods, 65:55–63, 1983) from Boehringer Mannheim, Mannheim, Germany. Approximately 10,000 cells per 100 μl were seeded in 96-well plates. After an initial incubation of four hours, various substance concentrations were added, and the cells were incubated at 37° C. in a water-saturated atmosphere of 95% air and 5% CO2 for 72 hours. The substances were dissolved in dimethylsulfoxide (DMSO). The concentration of DMSO was 0.5%, and this was not toxic to the cells. Subsequently, the samples were fixed, washed, and the absorption was determined by a microplate reader.

[6] = test system: KB-3-1 (human oral epidermoid carcinoma); assay: Inhibition of tumor cell growth, SRB-assay, KB-3-1; type: cell-based
Procedure: as §2

[7] = test system: KB-HU hydroxyurea-resistant cells; assay: Inhibition of tumor cell growth, SRB-assay, KB-HU; type: cell-based, human
Procedure: as §2

[8] = test system: CCRF-CEM (acute lymphoblastic leukemia); assay: Inhibition of tumor cell growth, MTT-assay, CCRF-CEM; type: cell-based, human; settings: Table 2, 72 hours
MEXF 276L (melanoma) = assay: Inhibition of tumor cell growth, SRB-assay, MEXF 276L; type: cell-based, human; settings: Table 2, 72 hours, read-out: IC50 MEXF276L
Procedure: as §1

[9] = Table 4, 72 hours, read-out: In vitro-activity against human tumor cell lines, HeLa
[10] = Table 4, 72 hours, read-out: In vitro-activity against human tumor cell lines, Burkitts
[11] = Table 4, 72 hours, read-out: In vitro-activity against human tumor cell lines, HT-29
[12] = Table 4, 72 hours, read-out: In vitro-activity against human tumor cell lines, KB-C1
[13] = Table 4, 72 hours, read-out: In vitro-activity against human tumor cell lines, KB-3-1
[14] = Table 4, 72 hours, read-out: In vitro-activity against human tumor cell lines, KB-HU
[15] = Table 2, 72 hours, read-out: IC50 HeLa (converted)
[16] = Table 2, 72 hours, read-out: IC50 Burkitts
[17] = Table 2, 72 hours, read-out: IC50 HT-29 (converted)

Row | SMILES | IC50 [1, 9] [nM] | IC50 [2, 10] [nM] | Mean IC70 [3] [nM] | IC50 [4, 11] [nM] | IC50 [5, 12] [nM] | IC50 [6, 13] [nM] | IC50 [7, 14] [nM] | IC50 [1, 15] [nM] | IC50 [2, 16] [nM] | IC50 [8] [nM] | IC50 [4, 17] [nM] | IC50 (MEXF 276L (melanoma)) [nM] | further results
1 | CC(=NNc1nc2ccccc2n1C)c1ccc(-c2ccccc2)cn1 [Id-16] | 180 | 30 | 2084 | 250 | 180 | 250 | 190 |  |  |  |  |  | IC50 [3]: 965 nM; IC90 [3]: 7450 nM
2 | CC(=NNc1nc2ccccc2o1)c1ncccn1 [Ib-27] |  |  |  |  |  |  |  | 180 | 30 | 130 | 270 | 700 | 
3 | CC(=NNc1nc2ccccc2n1C)c1cc(Cl)ccn1 [Id-4, 1-(4-Chloro-2-pyridyl)-1-ethanone-1-(1-methyl-1H-benzo[d]imidazol-2-yl)-hydrazone] |  |  | 956 |  |  |  |  |  |  |  |  |  | IC50 ([1]; Homo sapiens, HeLa, Table 4, 72 hours, read-out: In vitro-activity against human tumor cell lines, HeLa): 170 nM; IC50 ([2]; Homo sapiens, CA46, Table 4, 72 hours, read-out: In vitro-activity against human tumor cell lines, Burkitts): 4 nM; IC50 ([3]; Homo sapiens): 301 nM; IC90 ([3]; Homo sapiens): 4290 nM; tumor type selectivity ([3]; colony forming assay, IC70 pattern, FIG. 1): selectivity for colon, breast, ovarian, and uterus tumors; IC50 ([4]; Homo sapiens, HT-29, Table 4, 72 hours, read-out: In vitro-activity against human tumor cell lines, HT-29): 520 nM; IC50 ([5]; Homo sapiens, KBC-1, Table 4, 72 hours, read-out: In vitro-activity against human tumor cell lines, KB-C1): 90 nM; IC50 ([6]; Homo sapiens, KB 3-1, Table 4, 72 hours, read-out: In vitro-activity against human tumor cell lines, KB-3-1): 71 nM; IC50 ([7]; Homo sapiens, Table 4, 72 hours, read-out: In vitro-activity against human tumor cell lines, KB-HU): 270 nM
4 | CC(=NNc1nc2ccccc2[nH]1)c1nccnc1C [Ib-14] |  |  |  |  |  |  |  | 3530 | 3370 | 2170 | 2230 | 4240 | 
5 | CC(=NNc1nc2ccccc2n1C)c1cc(-c2ccccc2)ccn1 [Id-15] | 40 | 30 | 1017 | 50 | 230 | 140 | 120 |  |  |  |  |  | IC50 [3]: 429 nM; IC90 [3]: 5670 nM
6 | CC(=NNc1nc2ccccc2[nH]1)c1cccnn1 [Ib-1] |  |  |  |  |  |  |  | 1230 | 840 | 980 | 2060 | 2140 | 
7 | CC(=NNc1nc2ccccc2o1)c1cc(C)ncn1 [Ib-10] |  |  |  |  |  |  |  | 210 | 40 | 220 | 120 | 1220 | 
8 | CC(=NNc1nc2ccccc2o1)c1cccnn1 [Ib-3] |  |  |  |  |  |  |  | 1250 | 1340 | 720 | 1770 | 1960 | 
9 | CC(=NNc1nc2ccccc2n1C)c1ncccc1N(C)C [Id-11] | 20 | 2 | 397 | 160 | 60 | 8 | 240 |  |  |  |  |  | IC50 [3]: 137 nM; IC90 [3]: 2900 nM
10 | CC(=NNc1nc2ccccc2o1)c1ccc2ccccc2n1 [Ib-19] |  |  |  |  |  |  |  | 4530 | 5490 | 7040 | 7760 | > 10000 | 
11 | CC(=NNc1nc2ccccc2o1)c1nccc2ccccc12 [Ib-21] |  |  |  |  |  |  |  | 340 | 200 | 350 | 1930 | 1560 | 
12 | CC(=NNc1nc2ccccc2n1C)c1cccc(Cl)n1 [Id-5] | 190 | 12 | 5740 | 320 | 30 | 7 | 20 |  |  |  |  |  | IC50 [3]: 3300 nM; IC90 [3]: 9380 nM
13 | CC(=NNc1nc2ccccc2n1C)c1cccc(C)n1 [Id-10] | 380 | 110 |  | 800 | 1800 | 490 | 2230 |  |  |  |  |  | 
14 | CC(=NNc1nc2ccccc2[nH]1)c1ccccn1 [Ia-4, 1-(2-Pyridyl)-1-ethanon-1(1H-benzo[d]imidazol-2-yl)-hydrazone] |  |  |  |  |  |  |  |  |  |  |  |  | IC50 ([1]; Homo sapiens, HeLa, Table 1, 72 hours, read-out: IC50 HeLa (converted)): 70 nM; IC50 ([2]; Homo sapiens, CA46, Table 1, 72 hours, read-out: IC50 Burkitts): 44 nM; IC50 ([4]; Homo sapiens, HT-29, Table 1, 72 hours, read-out: IC50 HT-29 (converted)): 490 nM; IC50 ([5]; Homo sapiens, KBC-1, Table 1, 72 hours, read-out: IC50 KB-Cl): 1970 nM; IC50 ([6]; Homo sapiens, KB 3-1, Table 1, 72 hours, read-out: IC50 KB-3-1): 510 nM; IC50 ([7]; Homo sapiens, Table 1, 72 hours, read-out: IC50 KB-HU): 900 nM
15 | CC(=NNc1nc2ccccc2n1C)c1cccc(N(C)C)n1 [Id-13] | 6600 | 2010 |  | 17600 | 29500 | 4020 | 4900 |  |  |  |  |  | 
